# Test results: patent publication US20240067632A1, “WEE1 Degrading Compounds and Uses Thereof” (Bristol-Myers Squibb Company, priority 2022, published 2024)
# pEC50: −log10 of the molar value. Read-outs that look alike come from different tables or passages of the source.
# What was measured:
# WEE1 = molecular target: T1, WEE1 (Homo sapiens, UniProt P30291+Q96SW2); experiment: WEE1-ePL degradation assay (LentiX-WEE1-ePL-GSPT1-ND cells, InCELL Hunter luminescence, 4 h); type: cell-based; settings: 293T-LentiX WEE1-ePL cells; for DC50: read-out: 293T-LentiX WEE1-ePL Degradation 4 hr (EC50)
# T1 construct: C-terminal ePL-tagged (DiscoverX, Fremont, CA) full-length WEE1 expression construct; expressed in transfected cells; host or cells: LentiX-HEK293T (Invitrogen), lentiviral transduction; co-expressing GSPT1-GN (G576N, lacking the first 158 amino acids)
# In short: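 Luminescent readout (InCELL Hunter, 30 min RT) of WEE1-ePL levels in transduced HEK293T cells after 4 h compound exposure at 37 °C. Dosing: 10 points, 3-fold steps, top 1 uM or 10 uM. EC50 from four-parameter logistic fit; Ymax set by DMSO.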
# MKN45 cells = experiment: MKN45 cell proliferation assay (Cell-Titer-Glo, 120 h); type: cell-based; settings: for pEC50: Cell-Titer-Glo, read-out: MKN45 Cell Prolif. 120 hr (EC50); for MKN45 Cell Prolif. 120 hr (Ymin-Obs): minimal percent of DMSO control observed in the concentrations tested
# In short: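 Growth inhibition was read as blank-corrected Cell-Titer-Glo luminescence expressed as percent DMSO control after 120 h at 37 C, 400 cells/well. Compounds tested in triplicate as 10-point half-log series from 1 or 10 uM, 0.1% DMSO; four-parameter fit gave EC50, and lowest observed percent control was reported as Ymin-obs.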
# [1] = lower limit of the fit (Ymin=0 luciferase inhibitor, Ymax DMSO control)
# [2] = lower limit of the fit (0 = luciferase inhibitor, Ymax = DMSO control)
# [3] = Homo sapiens, MKN-45, 120 h, growth inhibition
Compound,293T-LentiX WEE1-ePL Degradation 4 hr (Ymin) (WEE1; [1]),DC50 (WEE1) [nM],"pEC50 (MKN45 cells; Homo sapiens, MKN-45, 120 h)",293T-LentiX WEE1-ePL Degradation 4 hr (Ymin) (WEE1; [2]),pEC50 (MKN45 cells; [3]),pEC50 (MKN45 cells; growth inhibition),MKN45 Cell Prolif. 120 hr (Ymin-Obs) (MKN45 cells)
"COC[C@@H]1CN(Cc2ccc3nc(N4CCN(C(C)=O)CC4)ccc3c2)C[C@H]1Oc1ccc2c(c1)CN([C@H]1CCC(=O)NC1=O)C2=O [(3S)-3-(5-{[(3S,4S)-1-{[2-(4-acetylpiperazin-1-yl)quinolin-6-yl]methyl}-4-(methoxymethyl)pyrrolidin-3-yl]oxy}-1-oxo-2,3-dihydro-1H-isoindol-2-yl)piperidine-2,6-dione]",27.27,1.41,8.95,,,,8.785
"COC[C@@H]1CN(Cc2ccc3nc(N4CCOCC4)ncc3c2)C[C@H]1Oc1ccc2c(c1)CN([C@H]1CCC(=O)NC1=O)C2=O [(3S)-3-(5-{[(3S,4S)-4-(methoxymethyl)-1-{[2-(morpholin-4-yl)quinazolin-6-yl]methyl}pyrrolidin-3-yl]oxy}-1-oxo-2,3-dihydro-1H-isoindol-2-yl)piperidine-2,6-dione]",25.61,5.4,8.78,,,,8.574
"COC[C@@H]1CN(Cc2ccc3nc(C4CCOCC4)ncc3c2)C[C@H]1Oc1ccc2c(c1)CN([C@H]1CCC(=O)NC1=O)C2=O [(3S)-3-(5-{[(3S,4S)-4-(methoxymethyl)-1-{[2-(oxan-4-yl)quinazolin-6-yl]methyl}pyrrolidin-3-yl]oxy}-1-oxo-2,3-dihydro-1H-isoindol-2-yl)piperidine-2,6-dione]",23.11,17.6,8.31,,,,8.813
"C[C@@H]1c2cc(O[C@H]3CCN(Cc4ccc5nc(N6CCOCC6)ncc5c4)C3)ccc2C(=O)N1[C@H]1CCC(=O)NC1=O [(3S)-3-[(3R)-3-methyl-5-{[(3S)-1-{[2-(morpholin-4-yl)quinazolin-6-yl]methyl}pyrrolidin-3-yl]oxy}-1-oxo-2,3-dihydro-1H-isoindol-2-yl]piperidine-2,6-dione]",40.43,4.84,7.51,,,,36.11
"C[C@@H]1c2cc(O[C@H]3CCN(Cc4ccc5nc(C6CCOCC6)ccc5c4)C3)ccc2C(=O)N1[C@H]1CCC(=O)NC1=O [(3S)-3-[(3R)-3-methyl-5-{[(3S)-1-{[2-(oxan-4-yl)quinolin-6-yl]methyl}pyrrolidin-3-yl]oxy}-1-oxo-2,3-dihydro-1H-isoindol-2-yl]piperidine-2,6-dione]",42.32,2.67,7.75,,,,20.63
"C[C@H]1c2cc(O[C@H]3CCN(Cc4ccc5nc(C6CCOCC6)ccc5c4)C3)ccc2C(=O)N1[C@H]1CCC(=O)NC1=O [(3S)-3-[(3S)-3-methyl-5-{[(3S)-1-{[2-(oxan-4-yl)quinolin-6-yl]methyl}pyrrolidin-3-yl]oxy}-1-oxo-2,3-dihydro-1H-isoindol-2-yl]piperidine-2,6-dione]",49.25,212,6.43,,,,86.82

# Second part, led by results:
293T-LentiX WEE1-ePL Degradation 4 hr (Ymin) (WEE1; [1]),DC50 (WEE1) [nM],"pEC50 (MKN45 cells; Homo sapiens, MKN-45, 120 h)",293T-LentiX WEE1-ePL Degradation 4 hr (Ymin) (WEE1; [2]),pEC50 (MKN45 cells; [3]),pEC50 (MKN45 cells; growth inhibition),Compound,MKN45 Cell Prolif. 120 hr (Ymin-Obs) (MKN45 cells)
,5.04,,32.5,8.48,,"CN(C(=O)C1CCOCC1)c1ccc2cc(CN3CC[C@H](Oc4ccc5c(c4)CN(C4CCC(=O)NC4=O)C5=O)C3)ccc2n1 (stereo partly drawn) [N-(6-{[(3S)-3-{[2-(2,6-dioxopiperidin-3-yl)-1-oxo-2,3-dihydro-1H-isoindol-5-yl]oxy}pyrrolidin-1-yl]methyl}quinolin-2-yl)-N-methyloxane-4-carboxamide]",6.6
,1.78,,29,8.69,,"O=C1CCC(N2Cc3cc(O[C@H]4CCN(Cc5ccc6nc(NC(=O)C7CCOCC7)ccc6c5)C4)ccc3C2=O)C(=O)N1 (stereo partly drawn) [N-(6-{[(3S)-3-{[2-(2,6-dioxopiperidin-3-yl)-1-oxo-2,3-dihydro-1H-isoindol-5-yl]oxy}pyrrolidin-1-yl]methyl}quinolin-2-yl)oxane-4-carboxamide]",5.73
,2.09,,28.27,8.57,,"CO[C@H]1C[C@@H](c2ccc3cc(CN4CC[C@H](Oc5ccc6c(c5)CN(C5CCC(=O)NC5=O)C6=O)C4)ccc3n2)C1 (stereo partly drawn) [drawing 577, 3-(1-oxo-5-{[(3S)-1-({2-[(1s,3s)-3-methoxycyclobutyl]quinolin-6-yl}methyl)pyrrolidin-3-yl]oxy}-2,3-dihydro-1H-isoindol-2-yl)piperidine-2,6-dione]",7.76
,3.61,,27.12,8.48,,"CO[C@H]1C[C@H](c2ccc3cc(CN4CC[C@H](Oc5ccc6c(c5)CN(C5CCC(=O)NC5=O)C6=O)C4)ccc3n2)C1 (stereo partly drawn) [drawing 578, 3-(1-oxo-5-{[(3S)-1-({2-[(1r,3r)-3-methoxycyclobutyl]quinolin-6-yl}methyl)pyrrolidin-3-yl]oxy}-2,3-dihydro-1H-isoindol-2-yl)piperidine-2,6-dione]",7.412
,12.8,,21.76,,8.31,"CO[C@H]1C[C@H](c2ccc3cc(CN4CC[C@H](Oc5ccc6c(c5)CN(C5CCC(=O)NC5=O)C6=O)C4)ccc3n2)C1 (stereo partly drawn) [drawing 579, 3-(1-oxo-5-{[(3S)-1-({2-[(1r,3r)-3-methoxycyclobutyl]quinolin-6-yl}methyl)pyrrolidin-3-yl]oxy}-2,3-dihydro-1H-isoindol-2-yl)piperidine-2,6-dione]",8.615
,5.35,,23.8,,8.62,"CO[C@H]1C[C@@H](c2ccc3cc(CN4CC[C@H](Oc5ccc6c(c5)CN(C5CCC(=O)NC5=O)C6=O)C4)ccc3n2)C1 (stereo partly drawn) [drawing 581, 3-(1-oxo-5-{[(3S)-1-({2-[(1s,3s)-3-methoxycyclobutyl]quinolin-6-yl}methyl)pyrrolidin-3-yl]oxy}-2,3-dihydro-1H-isoindol-2-yl)piperidine-2,6-dione]",7.75
